Measurements as given in US20210308034A1, “PREBIOTIC COMPOSITIONS AND METHODS FOR MAINTAINING A HEALTHY SKIN MICROBIOTA” (KIMBERLY-CLARK WORLDWIDE, INC., priority 2018, published 2021).
Where a SMILES comes first, the peptide text is derived from it.

What was measured:
Format in all cases: cell-based
[1] = test system: Corynebacterium jeikum (ATCC 33033); assay: Carbohydrate Screening Test Method (Biolog phenotype microarray), Bacteria Code B; conditions: for Carbohydrate Screening Results, Bacteria Code B: Commensal, carbon microarray plate, OD 600 nm, 36 hr, 33° C., positive = more than 0.05 OD units above zero, blank cell = not utilized
Procedure: The screening process was set up to determine which carbohydrate sources promoted commensal and/or pathogenic bacteria as well as to obtain individual and combinations of carbohydrate sources that could serve as microbiota balancing agents that can support or maintain the healthy proportions of commensal skin bacteria of Corynebacterium, Staphylococcus, and Micrococcus. The screening was conducted utilizing Biolog phenotype microarray plates (Hayward, Calif.). Table 1 provides a coded list of the commensal and pathogenic skin bacteria that the carbohydrates were screened against.
(§1) The Bacteria Codes B, D, E, I, and J are commensal bacteria and are shaded in Table 2 for references purposes. The bacteria codes were each placed in a carbon microarray plate and screened through the Carbohydrate Screening Test Method, as described in the Test Methods section herein. If a particular bacteria code utilized a specific carbohydrate source as described in the Carbohydrate Screening Test Method, then the corresponding cell in Table 2 was marked with a Y (short for “Yes”).
To do so, the respective microarray data for the 79 carbohydrate sources was run through the GrowthRates 2.1 program to obtain growth parameters, such as growth rates and maximum yield data as described by the Belingham Research Institute, Hall, B. G., H. Acar and M. Barlow. […] Mol. Biol. Evol. […] The max yield parameters generated were utilized to calculate ratios of tested commensal bacteria. The ratios calculated were compared back to the desired ratios identified above (Corynebacterium to Staphylococcus of 1.3, Corynebacterium to Micrococcus of 1.4, and Staphylococcus to Micrococcus of 1.1).
(§2) As an example of this methodology used to calculate the commensal bacteria ratios and the difference between the calculated ratios and the desired ratios, an example code from Table 3 will be described. […] The max yields were then used to calculate ratios the bacteria would reach in a co-culture.
A passage of the culture was made using a sterile swab and streaked onto two M9*2 agar plates to prepare the incubated culture for the phenotype microarray pate according to Table 4.
(§3) All cultures were harvested and washed before inoculation into the carbon microarray plate (BiOLOG, Hayward Calif.), with Biolog Plates PM1 and PM2 each having a source definition of Carbon. The bacteria on the M9*2 agar was suspended via agitation with an inoculating loop in 1 mL of M9*1 media for collection in a 1.7 mL micro centrifuge tube, as noted in Table 4.

[2] = test system: Micrococcus luteus (SK58); assay: Carbohydrate Screening Test Method (Biolog phenotype microarray), Bacteria Code E; conditions: for Carbohydrate Screening Results, Bacteria Code E: Commensal, carbon microarray plate, OD 600 nm, 36 hr, 33° C., positive = more than 0.05 OD units above zero, blank cell = not utilized
Source text: (§4) After creating desired ratios of various commensal skin bacteria in a healthy skin microbiome, 188 different carbohydrate sources were screened as the next step in determining potential prospects for skin microbiota balancing agents. The screening process was set up to determine which carbohydrate sources promoted commensal and/or pathogenic bacteria as well as to obtain individual and combinations of carbohydrate sources that could serve as microbiota balancing agents that can support or maintain the healthy proportions of commensal skin bacteria of Corynebacterium, Staphylococcus, and Micrococcus. The screening was conducted utilizing Biolog phenotype microarray plates (Hayward, Calif.). Table 1 provides a coded list of the commensal and pathogenic skin bacteria that the carbohydrates were screened against.
as §1
To do so, the respective microarray data for the 79 carbohydrate sources was run through the GrowthRates 2.1 program to obtain growth parameters, such as growth rates and maximum yield data as described by the Belingham Research Institute, Hall, B. G., H. Acar and M. Barlow. 2014 Growth Rates Made Easy. Mol. Biol. Evol. 31:232-238 doi:10.1093/molbev/mst197. The max yield parameters generated were utilized to calculate ratios of tested commensal bacteria. The ratios calculated were compared back to the desired ratios identified above (Corynebacterium to Staphylococcus of 1.3, Corynebacterium to Micrococcus of 1.4, and Staphylococcus to Micrococcus of 1.1).
as §2

[3] = test system: Klebsiella pneumoniae (ATCC BAA-2146); conditions: Pathogenic; carbon microarray plate, OD 600 nm, 36 hr, 33° C.; positive = more than 0.05 OD units above zero; blank cell = not utilized
Source text: as §4
Table 2 provides the results of screening various carbohydrate sources against the commensal and pathogenic bacteria codes listed in Table 1. The Bacteria Codes B, D, E, I, and J are commensal bacteria and are shaded in Table 2 for references purposes. The bacteria codes were each placed in a carbon microarray plate and screened through the Carbohydrate Screening Test Method, as described in the Test Methods section herein. If a particular bacteria code utilized a specific carbohydrate source as described in the Carbohydrate Screening Test Method, then the corresponding cell in Table 2 was marked with a Y (short for “Yes”). […] Many of the carbohydrate sources were utilized by both commensal and pathogenic bacteria, and as such, would not provide an advantage for selective growth of the commensal bacteria. However, some of the carbohydrate sources were only used by commensal bacteria and were identified for further testing as described herein.
The study employed 10 representative skin bacteria; Staphylococcus epidermidis ATCC 14990, Staphylococcus epidermidis M23864:W2, Staphylococcus aureus ATCC 6538, Staphylococcus aureus ATCC 25904 (Newman), Pseudomonas aeruginosa ATCC 9027, Micrococcus luteus ATCC […], Micrococcus luteus SK58, Klebsiella pneumoniae ATCC BAA-2146, Corynebacterium amycolatum SK46, and Corynebacterium minutissimum ATCC 23348. Cultures were started from freezer bead stocks by placing a single bead into 20 mL of tryptic soy broth (TSB) for all organisms except C. amycolatum SK46 and C. minutissimum ATCC 23348, which were placed into brain heart infusion (BHI) broth. Cultures were grown for about 24 hr at 37° C. except M. luteus ATCC 49732 and M. luteus SK58, which were grown at 30° C. A passage of the culture was made using a sterile swab and streaked onto two M9*2 agar plates to prepare the incubated culture for the phenotype microarray pate according to Table 4. Plates were incubated for about 24 hr at 37° C. except for M. luteus ATCC 49732 and M. luteus SK58, which were incubated at 30° C. for 24 hr.
as §3, with “4. The bacteria was suspended again in M9*1 media, agitated, and collected into the same 1.7 mL microcentrifuge tube used in the previous step. The tube was centrifuged for 5 minutes at 4,000×G, supernatant decanted, the pellet was resuspended in 1 mL of M9*1 media, and vortex. This washing process was repeated for a total of 4 times.” for “4.”
A tenfold dilution in M9*1 media was performed using 1 mL of the washed bacterial culture. Of the tenfold dilution 200 μL was placed in an untreated 96-well plate (Falcon, Pasadena Tx.) for an initial optical density (OD) reading at a wavelength of 600 nm. The OD was used to correlate to colony forming units (CFU) per milliliter by using linear regression lines for each organism. […]

O=C(O)/C=C/C(=O)O [Fumaric Acid]
Carbohydrate Screening Results, Bacteria Code B [1]: Y
Carbohydrate Screening Results, Bacteria Code E [2]: Y

C[C@@H](O)[C@H](N)C(=O)O [L-Threonine]
Carbohydrate Screening Results, Bacteria Code B [1]: Y
Carbohydrate Screening Results, Bacteria Code E [2]: Y

C[C@H](O)[C@@H](N)C(=O)O [D-Threonine]
Carbohydrate Screening Results, Bacteria Code B [1]: Y
Carbohydrate Screening Results, Bacteria Code E [2]: Y

COC(=O)[C@@H](C)O [D-Lactic Acid Methyl Ester]
Carbohydrate Screening Results, Bacteria Code C [3]: Y

O=C[C@@H](O)[C@H](O[C@@H]1O[C@H](CO)[C@H](O)[C@H](O)[C@H]1O)[C@H](O)CO [3-0-β-D-Galacto-pyranosyl-D-Arabinose]
Carbohydrate Screening Results, Bacteria Code C [3]: Y

O=C(O)CC(Br)C(=O)O (stereo not drawn) [Bromo Succinic Acid]
Carbohydrate Screening Results, Bacteria Code B [1]: Y

CC(O)CO (stereo not drawn) [1,2-Propanediol]
Carbohydrate Screening Results, Bacteria Code B [1]: Y
Carbohydrate Screening Results, Bacteria Code E [2]: Y

O=CO [Formic Acid]
Carbohydrate Screening Results, Bacteria Code B [1]: Y
Carbohydrate Screening Results, Bacteria Code E [2]: Y

O=C(O)CC(O)(CC(=O)O)C(=O)O [Citric Acid]
Carbohydrate Screening Results, Bacteria Code B [1]: Y

CCC(=O)C(=O)O [α-Keto-Butyric Acid]
Carbohydrate Screening Results, Bacteria Code B [1]: Y

N[C@@H](CC(=O)O)C(=O)O [L-Aspartic Acid]
Carbohydrate Screening Results, Bacteria Code B [1]: Y
Carbohydrate Screening Results, Bacteria Code C [3]: Y

OC[C@H]1O[C@H](OC[C@H]2O[C@H](O[C@]3(CO)O[C@H](CO)[C@@H](O)[C@@H]3O)[C@H](O)[C@@H](O)[C@@H]2O)[C@H](O)[C@@H](O)[C@H]1O [D-Raffinose]
Carbohydrate Screening Results, Bacteria Code C [3]: Y

C[C@H](N)C(=O)O [L-Alanine]
Carbohydrate Screening Results, Bacteria Code E [2]: Y

NCC(=O)N[C@@H](CCC(=O)O)C(=O)O [Glycyl-L-Glutamic Acid] (H-Gly-Glu-OH)
Carbohydrate Screening Results, Bacteria Code E [2]: Y

O=C(O)[C@H](O)[C@@H](O)[C@H](O)[C@H](O)CO[C@H]1O[C@H](CO)[C@H](O)[C@H](O)[C@H]1O [Melibionic Acid]
Carbohydrate Screening Results, Bacteria Code C [3]: Y

O=CC(=O)O [Glyoxylic Acid]
Carbohydrate Screening Results, Bacteria Code B [1]: Y

Tween 40
Carbohydrate Screening Results, Bacteria Code B [1]: Y

Nc1ncnc2c1ncn2[C@@H]1O[C@H](CO)[C@@H](O)[C@H]1O [Adenosine]
Carbohydrate Screening Results, Bacteria Code B [1]: Y
Carbohydrate Screening Results, Bacteria Code E [2]: Y

OC[C@@H](O)[C@H](O)[C@H](O)[C@@H](O)CO [Dulcitol]
Carbohydrate Screening Results, Bacteria Code B [1]: Y
Carbohydrate Screening Results, Bacteria Code E [2]: Y

NC(=O)CC[C@H](N)C(=O)O [L-Glutamine]
Carbohydrate Screening Results, Bacteria Code B [1]: Y
Carbohydrate Screening Results, Bacteria Code C [3]: Y

O=C(O)Cc1cccc(O)c1 [m-Hydroxy Phenyl Acetic Acid]
Carbohydrate Screening Results, Bacteria Code C [3]: Y

O=C(O)[C@@H]1CCCN1 [L-Proline]
Carbohydrate Screening Results, Bacteria Code B [1]: Y
Carbohydrate Screening Results, Bacteria Code E [2]: Y

CCC(=O)O [Propionic Acid]
Carbohydrate Screening Results, Bacteria Code B [1]: Y
Carbohydrate Screening Results, Bacteria Code E [2]: Y

O=C1CCC(C(=O)O)O1 (stereo not drawn) [α-Hydroxy Glutaric Acid-γ-Lactone]
Carbohydrate Screening Results, Bacteria Code B [1]: Y
Carbohydrate Screening Results, Bacteria Code E [2]: Y

NC(=O)[C@@H](O)[C@@H](O)[C@H](O)[C@@H](O)C=O [Glucuronamide]
Carbohydrate Screening Results, Bacteria Code B [1]: Y
Carbohydrate Screening Results, Bacteria Code E [2]: Y

O=C(O)CCC(=O)C(=O)O [α-Keto-Glutaric Acid]
Carbohydrate Screening Results, Bacteria Code B [1]: Y

CCC(O)C(=O)O (stereo not drawn) [α-Hydroxy Butyric Acid]
Carbohydrate Screening Results, Bacteria Code B [1]: Y

N[C@H](CC(=O)O)C(=O)O [D-Aspartic Acid]
Carbohydrate Screening Results, Bacteria Code B [1]: Y
Carbohydrate Screening Results, Bacteria Code E [2]: Y

O=C(O)CC(CC(=O)O)C(=O)O [Tricarballylic Acid]
Carbohydrate Screening Results, Bacteria Code E [2]: Y

OC[C@H]1O[C@@H](Oc2ccc(O)cc2)[C@H](O)[C@@H](O)[C@@H]1O [Arbutin]
Carbohydrate Screening Results, Bacteria Code C [3]: Y

CC(=O)N[C@H]1[C@@H](O)[C@H](O)[C@@H](CO)O[C@H]1O [N-Acetyl-β-D-Mannosamine]
Carbohydrate Screening Results, Bacteria Code B [1]: Y
Carbohydrate Screening Results, Bacteria Code E [2]: Y

C[C@H](N)C(=O)NCC(=O)O [L-Alanyl-Glycine] (H-Ala-Gly-OH)
Carbohydrate Screening Results, Bacteria Code B [1]: Y
Carbohydrate Screening Results, Bacteria Code E [2]: Y

O=C(O)CO [Glycolic Acid]
Carbohydrate Screening Results, Bacteria Code B [1]: Y
Carbohydrate Screening Results, Bacteria Code E [2]: Y

C[C@@H](N)C(=O)O [D-Alanine]
max yield ([1]; C. jeikeium, GrowthRates 2.1 on microarray data): 0.157
Carbohydrate Screening Results, Bacteria Code B [1]: Y
Carbohydrate Screening Results, Bacteria Code E [2]: Y
max yield ([2]; M. luteus SK58, GrowthRates 2.1 on microarray data): 0.098

CC(=O)CC(=O)O [Acetoacetic Acid]
Carbohydrate Screening Results, Bacteria Code B [1]: Y
Carbohydrate Screening Results, Bacteria Code E [2]: Y

O=C(O)C(O)C(O)C(=O)O (stereo not drawn) [m-Tartaric Acid]
Carbohydrate Screening Results, Bacteria Code B [1]: Y

N[C@@H](C(=O)O)[C@@H](O)[C@H](O)[C@H](O)CO [D-Glucosaminic Acid]
Carbohydrate Screening Results, Bacteria Code E [2]: Y

NCC(=O)N[C@@H](CC(=O)O)C(=O)O [Glycyl-L-Aspartic Acid] (H-Gly-Asp-OH)
Carbohydrate Screening Results, Bacteria Code E [2]: Y

O=C(O)C[C@H](O)C(=O)O [L-Malic Acid]
Carbohydrate Screening Results, Bacteria Code B [1]: Y
Carbohydrate Screening Results, Bacteria Code E [2]: Y

O=C(O)[C@@H](O)[C@H](O)[C@H](O)[C@@H](O)C(=O)O [Mucic Acid]
Carbohydrate Screening Results, Bacteria Code B [1]: Y

NCCc1ccccc1 [Phenylethyl-amine]
Carbohydrate Screening Results, Bacteria Code B [1]: Y
